Test results: PubChem BioAssay (NCI)
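All cell lines were grown in 96-well plates and treated with compound for 48 hours. TGI: total growth inhibition.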

How the values were obtained:
Assay in all cases: NCI-60 cell line screen, 48 h
HS 578T breast = system: HS 578T breast
IGROV1 ovarian = system: IGROV1 ovarian
SK-MEL-5 melanoma = system: SK-MEL-5 melanoma
M14 melanoma = system: M14 melanoma
NCI-H226 lung = system: NCI-H226 lung
OVCAR-5 ovarian = system: OVCAR-5 ovarian
CAKI-1 renal = system: CAKI-1 renal
A498 renal = system: A498 renal
OVCAR-4 ovarian = system: OVCAR-4 ovarian
SN12C renal = system: SN12C renal

SMILES	TGI (HS 578T breast)	TGI (IGROV1 ovarian)	TGI (SK-MEL-5 melanoma)	TGI (M14 melanoma)	TGI (NCI-H226 lung)	TGI (OVCAR-5 ovarian)	TGI (CAKI-1 renal)	TGI (A498 renal)	TGI (OVCAR-4 ovarian)	TGI (SN12C renal)
O=C1C=C(C2=C(C3=CC(=O)c4ccccc4C3=O)C(=O)c3ccccc3C2=O)C(=O)c2ccccc21	40 µM	8.1 µM	23.9 µM	22.5 µM	29.9 µM	25.6 µM	11.7 µM	36.8 µM	17 µM	16.5 µM
CCOC(=O)/C=C\C(C#N)(C#N)N=Cc1ccsc1	48.4 µM	28.2 µM	35.4 µM	9.5 µM	34.2 µM	33.1 µM	5.33 µM	33.5 µM	19.2 µM	36.3 µM
